Reference: US20240270762A1, “PENICILLIN-BINDING PROTEIN INHIBITORS” (priority 2021, published 2024)
Converted amounts (≈) assume the structure as drawn. Like-named read-outs stand apart in the source and are kept apart here.

Legend:
[1] = target: T1, PBP3 from Escherichia coli (K-12) (Escherichia coli, UniProt P0AD68); experiment: Bocillin-FL fluorescence polarization competition binding, E. coli PBP3
T1 construct: made in house
How it was run: (§1)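 Purified PBP was preincubated with inhibitor (E. coli PBP3 1.5 μM, 30 min; P. aeruginosa PBP3 0.75 μM, A. baumannii PBP3 0.2 μM and PBP1a 1 μM, 15 min), then Bocillin-FL (0.1 μM; 0.05 μM for PBP1a) added and FP read up to 60 min. EC50 = 50% loss of bound probe.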

P. aeruginosa ATCC 27853 = experiment: microbe, parasite or virus in culture; type: cell-based; conditions: Pseudomonas aeruginosa, ATCC27853, read-out: Minimum inhibitory concentration, P. aeruginosa ATCC 27853
A. baumannii ATCC 17978 = experiment: microbe, parasite or virus in culture; type: cell-based; conditions: Acinetobacter baumannii, ATCC17978, read-out: MIC, A. baumannii ATCC 17978
P. aeruginosa CDC-0054 = experiment: microbe, parasite or virus in culture; type: cell-based; conditions: Pseudomonas aeruginosa, CDC0054, read-out: Minimum inhibitory concentration, P. aeruginosa CDC-0054
P. aeruginosa CDC-0095 = experiment: microbe, parasite or virus in culture; type: cell-based; conditions: Pseudomonas aeruginosa, CDC0095, read-out: Minimum inhibitory concentration, P. aeruginosa CDC-0095
A. baumannii CDC-0033 = experiment: microbe, parasite or virus in culture; type: cell-based; conditions: Acinetobacter baumannii, CDC0033, read-out: MIC, A. baumannii CDC-0033
A. baumannii CDC-0036 = experiment: microbe, parasite or virus in culture; type: cell-based; conditions: Acinetobacter baumannii, CDC0036, read-out: MIC, A. baumannii CDC-0036
[2] = tested on: B. humptydooensis ATCC BAA-2767; experiment: microbe, parasite or virus in culture; type: cell-based; conditions: Burkholderia humptydooensis, ATCCBAA2767, read-out: Minimum inhibitory concentration (MIC), B. humptydooensis ATCC BAA-2767
P. aeruginosa CDC-0110 = experiment: microbe, parasite or virus in culture; type: cell-based; conditions: Pseudomonas aeruginosa, CDC0110, read-out: Minimum inhibitory concentration, P. aeruginosa CDC-0110
N. gonorrhoeae FA1090 = experiment: Liquid broth MIC in Fastidious broth; conditions: Neisseria gonorrhoeae
N. gonorrhoeae MS11 = experiment: Liquid broth MIC in Fastidious broth; conditions: Neisseria gonorrhoeae
N. gonorrhoeae WHO L = experiment: Liquid broth MIC in Fastidious broth; conditions: Neisseria gonorrhoeae
N. gonorrhoeae WHO K = experiment: Liquid broth MIC in Fastidious broth; conditions: Neisseria gonorrhoeae
N. gonorrhoeae WHO Z = experiment: Liquid broth MIC in Fastidious broth; conditions: Neisseria gonorrhoeae
[3] = target: T2, PBP3 from Pseudomonas aeruginosa (PAO1) (Pseudomonas aeruginosa, UniProt G3XD46); experiment: Bocillin-FL fluorescence polarization competition binding, P. aeruginosa PBP3; conditions: Binding affinity to P. aeruginosa PBP3; fluorescence polarization competition binding assay using Bocillin-FL; read-out: P. aeruginosa PBP3 Potency
T2 construct: made in house
T2 sequence (G3XD46 whole entry): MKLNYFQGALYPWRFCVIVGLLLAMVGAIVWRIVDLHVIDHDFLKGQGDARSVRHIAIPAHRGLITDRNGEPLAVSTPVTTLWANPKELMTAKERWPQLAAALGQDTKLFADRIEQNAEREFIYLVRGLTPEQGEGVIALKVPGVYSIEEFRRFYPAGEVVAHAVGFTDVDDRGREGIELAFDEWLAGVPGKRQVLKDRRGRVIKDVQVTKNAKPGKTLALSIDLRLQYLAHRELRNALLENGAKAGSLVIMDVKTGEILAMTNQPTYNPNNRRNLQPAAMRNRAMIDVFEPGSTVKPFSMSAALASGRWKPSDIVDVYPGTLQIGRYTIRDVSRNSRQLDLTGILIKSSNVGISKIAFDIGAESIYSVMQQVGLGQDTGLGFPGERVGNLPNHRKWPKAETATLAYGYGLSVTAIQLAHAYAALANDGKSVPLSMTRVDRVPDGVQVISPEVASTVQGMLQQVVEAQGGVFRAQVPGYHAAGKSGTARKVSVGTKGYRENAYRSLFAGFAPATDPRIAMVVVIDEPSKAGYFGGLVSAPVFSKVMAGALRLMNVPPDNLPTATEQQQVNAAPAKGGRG
How it was run: as §1

[4] = FA1090, read-out: Minimum Inhibitory Concentration (MIC), N. gonorrhoeae FA 1090
[5] = MS11, read-out: Minimum Inhibitory Concentration (MIC), N. gonorrhoeae MS11
[6] = read-out: Minimum Inhibitory Concentration (MIC), N. gonorrhoeae WHO L
[7] = read-out: Minimum Inhibitory Concentration (MIC), N. gonorrhoeae WHO K
[8] = read-out: Minimum Inhibitory Concentration (MIC), N. gonorrhoeae WHO Z
[9] = FA1090, read-out: Minimum Inhibitory Concentration, FA 1090
[10] = MS11, read-out: Minimum Inhibitory Concentration, MS11
[11] = read-out: Minimum Inhibitory Concentration, WHO L
[12] = read-out: Minimum Inhibitory Concentration, WHO K
[13] = read-out: Minimum Inhibitory Concentration, WHO Z

T1 sequence (P0AD68 1-577): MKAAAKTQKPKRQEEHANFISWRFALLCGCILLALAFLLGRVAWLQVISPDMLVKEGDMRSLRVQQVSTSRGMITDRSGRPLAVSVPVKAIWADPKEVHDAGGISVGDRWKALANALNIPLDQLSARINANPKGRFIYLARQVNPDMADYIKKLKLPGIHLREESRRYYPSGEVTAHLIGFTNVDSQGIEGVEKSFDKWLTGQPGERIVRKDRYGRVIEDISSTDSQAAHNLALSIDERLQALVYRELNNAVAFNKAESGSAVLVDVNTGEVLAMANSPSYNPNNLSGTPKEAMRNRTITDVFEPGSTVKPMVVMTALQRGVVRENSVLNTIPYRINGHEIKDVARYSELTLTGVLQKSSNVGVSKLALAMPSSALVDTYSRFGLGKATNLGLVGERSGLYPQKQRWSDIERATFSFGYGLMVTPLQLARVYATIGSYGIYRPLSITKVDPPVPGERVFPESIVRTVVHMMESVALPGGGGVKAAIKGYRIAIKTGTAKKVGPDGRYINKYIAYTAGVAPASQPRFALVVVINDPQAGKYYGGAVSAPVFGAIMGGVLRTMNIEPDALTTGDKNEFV

SMILES | EC50 [1] [µM] | MIC (P. aeruginosa ATCC 27853) [µg/mL] | MIC (A. baumannii ATCC 17978) [µg/mL] | MIC (P. aeruginosa CDC-0054) [µg/mL] | MIC (P. aeruginosa CDC-0095) [µg/mL] | MIC (A. baumannii CDC-0033) [µg/mL] | MIC (A. baumannii CDC-0036) [µg/mL] | MIC [2] [µg/mL] | MIC (P. aeruginosa CDC-0110) [µg/mL] | MIC (N. gonorrhoeae FA1090; [4]) [µg/mL] | MIC (N. gonorrhoeae MS11; [5]) [µg/mL] | MIC (N. gonorrhoeae WHO L; [6]) [µg/mL] | MIC (N. gonorrhoeae WHO K; [7]) [µg/mL] | MIC (N. gonorrhoeae WHO Z; [8]) [µg/mL] | IC50 [3] [µM] | MIC (N. gonorrhoeae FA1090; [9]) [µg/mL] | MIC (N. gonorrhoeae MS11; [10]) [µg/mL] | MIC (N. gonorrhoeae WHO L; [11]) [µg/mL] | MIC (N. gonorrhoeae WHO K; [12]) [µg/mL] | MIC (N. gonorrhoeae WHO Z; [13]) [µg/mL]
O=C(O)c1c(F)ccc2c1OB(O)[C@@H](NC(=O)C(NC(=O)N1CCN(CCCNC(=O)[C@@H]3CCCN3)C(=O)C1=O)c1cc(F)c(O)c(O)c1Cl)C2 (stereo partly drawn) [Example 212, (3R)-3-(2-(2-chloro-5-fluoro-3,4-dihydroxyphenyl)-2-(2,3-dioxo-4-(3-((S)-pyrrolidine-2-carboxamido)propyl)piperazine-1-carboxamido)acetamido)-7-fluoro-2-hydroxy-3,4-dihydro-2H-benzo[e][1,2]oxaborinine-8-carboxylic acid] | 10 to 50 | 2 to 4 (≈ 2.71 to 5.43 µM) | < 1 | 8 to 16 (≈ 10.9 to 21.7 µM) | 2 to 4 (≈ 2.71 to 5.43 µM) | 8 to 16 (≈ 10.9 to 21.7 µM) | 8 to 16 (≈ 10.9 to 21.7 µM) | < 1 | < 1 | 4 to 8 (≈ 5.43 to 10.9 µM) | 16 to 32 (≈ 21.7 to 43.4 µM) | > 64 | > 64 | > 64 | – | – | – | – | – | –
O=C(CN1CCN(C(=O)NC(C(=O)N[C@H]2Cc3ccc(F)c(C(=O)O)c3OB2O)c2cc(F)c(O)c(O)c2Cl)C(=O)C1=O)NCc1ccc(O)cc1 (stereo partly drawn) [Example 236, (3R)-3-(2-(2-chloro-5-fluoro-3,4-dihydroxyphenyl)-2-(4-(2-((4-hydroxybenzyl)amino)-2-oxoethyl)-2,3-dioxopiperazine-1-carboxamido)acetamido)-7-fluoro-2-hydroxy-3,4-dihydro-2H-benzo[e][1,2]oxaborinine-8-carboxylic acid] | < 10 | – | < 1 | – | – | 8 to 16 (≈ 10.7 to 21.5 µM) | 8 to 16 (≈ 10.7 to 21.5 µM) | 2 to 4 (≈ 2.68 to 5.36 µM) | – | – | – | – | – | – | < 10 | – | – | – | – | –
O=C(O)c1cccc2c1OB(O)[C@@H](NC(=O)[C@@H](NC(=O)c1cnc3n(c1=O)CCS3)c1ccc(P(=O)(O)O)cc1)C2 (single isomer, unassigned) [Example 196] | > 250 | – | – | – | – | – | – | – | – | 4 to 8 (≈ 6.66 to 13.3 µM) | 16 to 32 (≈ 26.7 to 53.3 µM) | 16 to 32 (≈ 26.7 to 53.3 µM) | 16 to 32 (≈ 26.7 to 53.3 µM) | 16 to 32 (≈ 26.7 to 53.3 µM) | 50 to 250 | – | – | – | – | –
CCN1CCN(C(=O)NC(C(=O)N[C@H]2Cc3cccc(C(=O)O)c3OB2O)c2ccc(P(=O)(O)O)c(F)c2O)C(=O)C1=O (stereo partly drawn) [Example 198, (3R)-3-(2-(4-ethyl-2,3-dioxopiperazine-1-carboxamido)-2-(3-fluoro-2-hydroxy-4-phosphonophenyl)acetamido)-2-hydroxy-3,4-dihydro-2H-benzo[e][1,2]oxaborinine-8-carboxylic acid] | 10 to 50 | – | – | – | – | – | – | – | – | < 1 | < 1 | 1 to 2 (≈ 1.61 to 3.21 µM) | 4 to 8 (≈ 6.43 to 12.9 µM) | 1 to 2 (≈ 1.61 to 3.21 µM) | 10 to 50 | – | – | – | – | –
O=C(NCCCN1CCN(C(=O)N[C@@H](C(=O)N[C@H]2Cc3ccc(F)c(C(=O)O)c3OB2O)c2cc(F)c(O)c(O)c2Cl)C1=O)c1ccccc1 [Example 253, (R)-3-((R)-2-(3-(3-benzamidopropyl)-2-oxoimidazolidine-1-carboxamido)-2-(2-chloro-5-fluoro-3,4-dihydroxyphenyl)acetamido)-7-fluoro-2-hydroxy-3,4-dihydro-2H-benzo[e][1,2]oxaborinine-8-carboxylic acid] | < 10 | 2 to 4 (≈ 2.79 to 5.59 µM) | < 1 | 8 to 16 (≈ 11.2 to 22.4 µM) | 2 to 4 (≈ 2.79 to 5.59 µM) | < 1 | < 1 | – | 2 to 4 (≈ 2.79 to 5.59 µM) | – | – | – | – | – | < 10 | 1 to 2 (≈ 1.4 to 2.79 µM) | 16 to 32 (≈ 22.4 to 44.7 µM) | > 64 | > 64 | 16 to 32 (≈ 22.4 to 44.7 µM)
O=C(NCCN1CCN(C(=O)NC(C(=O)N[C@H]2Cc3ccc(F)c(C(=O)O)c3OB2O)c2cc(F)c(O)c(O)c2Cl)C(=O)C1=O)c1ccccc1 (stereo partly drawn) [Example 207, (3R)-3-(2-(4-(2-benzamidoethyl)-2,3-dioxopiperazine-1-carboxamido)-2-(2-chloro-5-fluoro-3,4-dihydroxyphenyl)acetamido)-7-fluoro-2-hydroxy-3,4-dihydro-2H-benzo[e][1,2]oxaborinine-8-carboxylic acid] | < 10 | 2 to 4 (≈ 2.74 to 5.48 µM) | < 1 | 2 to 4 (≈ 2.74 to 5.48 µM) | 2 to 4 (≈ 2.74 to 5.48 µM) | 8 to 16 (≈ 11 to 21.9 µM) | 8 to 16 (≈ 11 to 21.9 µM) | < 1 | < 1 | 4 to 8 (≈ 5.48 to 11 µM) | 16 to 32 (≈ 21.9 to 43.8 µM) | > 64 | > 64 | 16 to 32 (≈ 21.9 to 43.8 µM) | – | – | – | – | – | –
O=C(O)c1c(F)ccc2c1OB(O)[C@@H](NC(=O)[C@H](NC(=O)N1CCN(CCNC(=O)[C@@H]3CCCN3)C(=O)C1=O)c1cc(F)c(O)c(O)c1Cl)C2 [Example 229, (R)-3-((R)-2-(2-chloro-5-fluoro-3,4-dihydroxyphenyl)-2-(2,3-dioxo-4-(2-((S)-pyrrolidine-2-carboxamido)ethyl)piperazine-1-carboxamido)acetamido)-7-fluoro-2-hydroxy-3,4-dihydro-2H-benzo[e][1,2]oxaborinine-8-carboxylic acid] | 10 to 50 | < 1 | < 1 | 2 to 4 (≈ 2.77 to 5.53 µM) | < 1 | 8 to 16 (≈ 11.1 to 22.1 µM) | 2 to 4 (≈ 2.77 to 5.53 µM) | – | 2 to 4 (≈ 2.77 to 5.53 µM) | 4 to 8 (≈ 5.53 to 11.1 µM) | 16 to 32 (≈ 22.1 to 44.3 µM) | > 64 | 16 to 32 (≈ 22.1 to 44.3 µM) | 16 to 32 (≈ 22.1 to 44.3 µM) | < 10 | – | – | – | – | –
O=C(NCCS(=O)(=O)N1CCN(C(=O)NC(C(=O)N[C@H]2Cc3ccc(F)c(C(=O)O)c3OB2O)c2cc(F)c(O)c(O)c2Cl)C1=O)c1ccccc1 (stereo partly drawn) [Example 260, (3R)-3-(2-(3-((2-benzamidoethyl)sulfonyl)-2-oxoimidazolidine-1-carboxamido)-2-(2-chloro-5-fluoro-3,4-dihydroxyphenyl)acetamido)-7-fluoro-2-hydroxy-3,4-dihydro-2H-benzo[e][1,2]oxaborinine-8-carboxylic acid] | < 10 | 2 to 4 (≈ 2.61 to 5.22 µM) | < 1 | 2 to 4 (≈ 2.61 to 5.22 µM) | 2 to 4 (≈ 2.61 to 5.22 µM) | 2 to 4 (≈ 2.61 to 5.22 µM) | 2 to 4 (≈ 2.61 to 5.22 µM) | – | 2 to 4 (≈ 2.61 to 5.22 µM) | – | – | – | – | – | < 10 | 4 to 8 (≈ 5.22 to 10.4 µM) | 16 to 32 (≈ 20.9 to 41.8 µM) | > 64 | > 64 | 16 to 32 (≈ 20.9 to 41.8 µM)
O=C(O)c1cccc2c1OB(O)[C@@H](NC(=O)[C@H](NC(=O)c1cnc3n(c1=O)CCS3)c1ccc(P(=O)(O)O)cc1)C2 (single isomer, unassigned) [Example 197] | 10 to 50 | – | – | – | – | – | – | – | – | 1 to 2 (≈ 1.67 to 3.33 µM) | 16 to 32 (≈ 26.7 to 53.3 µM) | 16 to 32 (≈ 26.7 to 53.3 µM) | 16 to 32 (≈ 26.7 to 53.3 µM) | 16 to 32 (≈ 26.7 to 53.3 µM) | < 10 | – | – | – | – | –
O=C(NCCCN1CCN(C(=O)NC(C(=O)N[C@H]2Cc3ccc(F)c(C(=O)O)c3OB2O)c2cc(F)c(O)c(O)c2Cl)C(=O)C1=O)c1nccs1 (stereo partly drawn) [Example 211, (3R)-3-(2-(2-chloro-5-fluoro-3,4-dihydroxyphenyl)-2-(2,3-dioxo-4-(3-(thiazole-2-carboxamido)propyl)piperazine-1-carboxamido)acetamido)-7-fluoro-2-hydroxy-3,4-dihydro-2H-benzo[e][1,2]oxaborinine-8-carboxylic acid] | < 10 | 2 to 4 (≈ 2.66 to 5.33 µM) | < 1 | 2 to 4 (≈ 2.66 to 5.33 µM) | 2 to 4 (≈ 2.66 to 5.33 µM) | 2 to 4 (≈ 2.66 to 5.33 µM) | 2 to 4 (≈ 2.66 to 5.33 µM) | < 1 | < 1 | 1 to 2 (≈ 1.33 to 2.66 µM) | 16 to 32 (≈ 21.3 to 42.6 µM) | > 64 | > 64 | 16 to 32 (≈ 21.3 to 42.6 µM) | – | – | – | – | – | –
